{"source": "patent US20090221069A1", "about": "“METHOD FOR AUGMENTING THE ABILITY OF T-CELLS AND OTHER CELLS FOR FIGHTING DISEASE AND INVADE DISEASED ORGANS, FOR ELEVATING CD3 ZETA AND TNF-ALPHA EXPRESSION IN T-CELLS, AND MIXING T-CELL BOOSTING AND KIT PARTICULARLY USEFUL IN SUCH METHOD” (priority 2005, published 2009)", "key": {"ion channel": {"test_system": "ion channel", "conditions": "from manufacturer's data sheets and/or the literature; cited from earlier work"}, "[1]": {"test_system": "normal resting human T-cells", "experiment": "Cytokine (TNFα, IFNγ, IL-10, IL-4) secretion by resting T-cells, sandwich ELISA", "type": "cell-based", "conditions": "for cytokine secretion profile (TNFα, IFNγ, IL-4, IL-10): data not shown; for TNFα secretion in resting normal human T-cells: highest concentration used (DTX-K 100 nM), FIG. 18a", "protocol": "Human T-cells: Normal human T-cells were purified from peripheral blood of healthy donors as described (19, 23, 61), and the resulting cell population, containing ≧90% T-cells, was suspended in RPMI medium supplemented with 10% FCS, 1% LGlutamine and antibiotics (Biological Industries, Bet Haemek, Israel) and maintained at 2×10^6 cells/ml (37° C./5% CO2).\nDetermination of TNFα, IFNγ, IL-10 and IL-4 by ELISA: Freshly-purified normal resting human T-cells (2×10^6/ml) were incubated in 24-well plates (Costar, Corning, N.Y.) and the various channel blockers were added. Importantly, no other stimulating molecule (e.g. phorbol esters, antigens, anti-CD3/CD28 mAbs) was added. Cytokine […] levels were measured in supernatants after 24 hr for TNFα and IFNγ and after 72 hr for IL-10 and IL-4, by quantitative sandwich ELISA (R&D, Minneapolis, Minn.), according to the manufacturer's instructions."}, "[2]": {"test_system": "human cancer growing in SCID mice", "type": "in vivo"}, "Normal human T-cells": {"test_system": "Normal human T-cells", "type": "cell-based", "protocol": "Normal human T-cells, isolated from fresh peripheral blood lymphocytes, were treated with 10 nM of neurotransmitters: either GnRH-II or dopamine (30 min or 24 hr at 37° C.). Following this neurotransmitter treatment, the T-cells were washed with phosphate-buffered saline (PBS) and […] with paraformaldehyde (PFA) for 20 min at room temperature (1×10^6 cells resuspended in 50 μl PBS+100 μl 0.5% PFA). The T-cells were then washed again with PBS and subjected to single immunofluorescence staining, using a mouse anti-human TCR/CD3zeta chain subunit (also called CD247) mAb (Serotec) at 1:100 dilution/1×10^6 cells, diluted in 10 μg/ml digitonin (Sigma) cold solution, for 30 min on ice. For isotype control, cells were stained with normal mouse serum (Jackson Immunoresearch Laboratories). The cells were then stained with a fluorescein isothiocyanate (FITC)-conjugated anti-mouse IgG (100 μl of 1:100 dilution; Jackson). Cells stained with the second Ab only served as additional negative controls. Fluorescence profiles were recorded in a FACSort."}, "human T-cells": {"test_system": "human T-cells", "conditions": "data not shown"}, "[3]": {"conditions": "SCID mice, preliminary evidence"}}, "note": "Read-outs that look alike come from different tables or passages of the source. No end group written: not given here."}
{"compound": "O=C(O)c1cc([N+](=O)[O-])ccc1NCCCc1ccccc1", "note": "[NPPB]", "values": [{"measurement": "effective concentrations", "setting": "ion channel", "value": "100 to 200", "unit": "µM"}]}
{"compound": "CCCCCCCCCCCCCC(=O)O[C@@H]1[C@@H](C)[C@@]2(O)[C@@H](C=C(CO)C[C@]3(O)C(=O)C(C)=C[C@@H]23)[C@@H]2C(C)(C)[C@]12OC(C)=O", "note": "[PMA]", "values": [{"measurement": "cytokine secretion profile (TNFα, IFNγ, IL-4, IL-10)", "setting": "[1]", "value": "increased secretion of TNFα, IFNγ, IL-4 and IL-10"}]}
{"compound": "C=C[C@H]1C[N@@]2CC[C@H]1C[C@H]2[C@H](O)c1ccnc2ccc(OC)cc12", "note": "[Quinine]", "values": [{"measurement": "TNFα secretion in resting normal human T-cells", "setting": "[1]; 24 hours exposure", "value": "somewhat weaker effect"}, {"measurement": "effective concentrations", "setting": "ion channel", "value": "1 to 10", "unit": "µM"}]}
{"compound": "NCCc1ccc(O)c(O)c1", "note": "[dopamine]", "values": [{"measurement": "overall in vivo activity of human tumor-specific T-cells against human cancer (cancer rejection)", "setting": "[2]; mouse, in vivo", "value": "augmented significantly"}, {"measurement": "number (percentage) of cells expressing CD3zeta", "setting": "Normal human T-cells", "value": "clear increase"}, {"measurement": "number of T-cells expressing CD3zeta, longer-term exposure versus 30 minutes", "setting": "Normal human T-cells", "value": "significantly more pronounced"}]}
{"compound": "N[C@@H](CCC(=O)O)C(=O)O", "note": "[glutamate]", "values": [{"measurement": "overall in vivo activity of human tumor-specific T-cells against human cancer (cancer rejection)", "setting": "[2]; [3]", "value": "augmented significantly"}]}
{"compound": "Dendrotoxin-K", "values": [{"measurement": "effect on cell survival of human T-cells", "setting": "human T-cells", "value": "no significant effect"}, {"measurement": "effect on proliferation of human T-cells", "setting": "human T-cells", "value": "no significant effect"}, {"measurement": "dose dependence of TNFα secretion triggering", "setting": "[1]; 24 hours exposure, FIG. 18b", "value": "dose dependent"}, {"measurement": "TNFα secretion in resting normal human T-cells", "setting": "[1]; 24 hours exposure", "value": "marked TNFα secretion"}, {"measurement": "TNFα secretion by T-cells from six different individuals", "setting": "[1]; 24 hr, 100 nM, FIG. 18c-h", "value": "triggered marked TNFα secretion"}, {"measurement": "cytokine secretion profile (TNFα, IFNγ, IL-4, IL-10)", "setting": "[1]", "value": "selectively increased only TNFα secretion"}]}
{"compound": "GnRH-II (QHWSHGWYPG; ends and bridges not checked; UniProt O43555 24-33, looked up)", "values": [{"measurement": "overall in vivo activity of human tumor-specific T-cells against human cancer (cancer rejection)", "setting": "[2]; [3]", "value": "augmented significantly"}, {"measurement": "intensity of CD3zeta expression (number of CD3zeta per T-cell)", "setting": "Normal human T-cells; 10 nM, 30 minutes exposure", "value": "very significant increase"}, {"measurement": "number (percentage) of cells expressing CD3zeta", "setting": "Normal human T-cells; 10 nM, 30 minutes exposure, no other molecules", "value": "very significant increase"}]}
{"compound": "Kaliotoxin", "values": [{"measurement": "TNFα secretion in resting normal human T-cells", "setting": "[1]; 24 hours exposure", "value": "somewhat weaker effect"}, {"measurement": "effective concentrations", "setting": "ion channel", "value": "0.001 to 0.1", "unit": "µM"}]}
